The source of these data is US11440886B2, “Anti-inflammatory compound, and preparation and use thereof” (E-Nitiate Biopharmaceuticals (Hangzhou) Co., Ltd., priority 2018, dated 2022).

One assay has as its system eczema. The following applies: patients with eczema; cited from earlier work.
For the next assay, the system named is cytokine release. The following applies: background statement; cited from earlier work.
Another assay deals with PDE4. Particulars: background statement; cited from earlier work.
Assay [1] deals with human peripheral blood mononuclear cells (PBMCs). Kind of assay: Inhibition of LPS-induced TNFα release by peripheral blood mononuclear cells (PBMCs). In kind it is cell-based. The following applies: PBMC, TNFα level in supernatant, LPS 1 ug/mL, 24 hours, Luminex. Here is the method: Inhibition of the compounds on proinflammatory cytokine release by peripheral blood mononuclear cells (PBMCs)
The effect of the compounds on the release characteristics of TNFa cytokines in frozen human peripheral blood mononuclear cells (PBMCs) was determined.
Fresh human PBMCs were isolated, and suspended in a fresh medium. The PBMC medium (CM) is RPMI1640 containing 10% FBS, 1% PBS, and 2 mM L-glutamine. The cells were plated at a density of 2*10^5 cells/well (100 ul). The test compound was dissolved in DMSO to form a 10 mM sample (DMSO, 100%). The compound was diluted with PBMC medium to the required concentrations. The sample (50 uL) was incubated for 1 hr with cells at 37° C., 5% CO2, after which the inducer (LPS, 1 ug/mL) was added. The inducer+vehicle (LPS+0.05% DMSO) was used as a control in this experiment. The vehicle without inducer was used as a negative control. Crisaborole was used as a positive control. After 24 hours of incubation, the supernatant was extracted and stored at −80° C. The supernatant was thawed and the TNFα level in the supernatant was measured by Luminex4-plex assay.

For assay [2], the target named is human recombinant PDE4B1 enzyme (Homo sapiens (Human), UniProt Q07343). Kind of assay: Inhibition of PDE4B1 activity by cAMP HTRF assay. In kind it is biochemical. Particulars: human recombinant PDE4B1, cAMP 40 nM, pH 7.4. An outline of the steps: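 Recombinant human PDE4B1 (4.8 U) was preincubated 10 min with compound in HBSS/HEPES/MgCl2/BSA, pH 7.4, then 40 nM cAMP was added for 60 min at RT. Remaining cAMP was read by HTRF after IBMX stop; IC50 from eight concentrations in duplicate, repeated twice.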
Chain of human recombinant PDE4B1 enzyme (Q07343 whole entry): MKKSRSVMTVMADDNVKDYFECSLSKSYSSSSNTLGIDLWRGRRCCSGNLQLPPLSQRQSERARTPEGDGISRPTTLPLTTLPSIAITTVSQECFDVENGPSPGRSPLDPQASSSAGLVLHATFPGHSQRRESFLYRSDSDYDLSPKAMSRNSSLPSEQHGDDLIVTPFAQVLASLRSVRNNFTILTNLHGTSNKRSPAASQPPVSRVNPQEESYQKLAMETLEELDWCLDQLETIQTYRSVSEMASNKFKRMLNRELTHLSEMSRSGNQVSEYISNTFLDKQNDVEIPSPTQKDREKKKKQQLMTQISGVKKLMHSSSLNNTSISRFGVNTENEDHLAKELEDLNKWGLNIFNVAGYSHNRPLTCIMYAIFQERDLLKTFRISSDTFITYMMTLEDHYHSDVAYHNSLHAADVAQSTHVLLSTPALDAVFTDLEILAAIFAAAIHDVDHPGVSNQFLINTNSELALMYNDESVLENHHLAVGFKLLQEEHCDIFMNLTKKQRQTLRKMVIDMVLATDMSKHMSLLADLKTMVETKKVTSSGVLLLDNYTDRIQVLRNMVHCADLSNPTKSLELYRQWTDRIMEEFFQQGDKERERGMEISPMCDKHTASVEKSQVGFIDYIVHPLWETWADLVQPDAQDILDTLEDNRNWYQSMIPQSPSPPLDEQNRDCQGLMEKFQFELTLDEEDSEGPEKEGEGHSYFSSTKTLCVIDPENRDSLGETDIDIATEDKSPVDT
(In general: Time-resolved FRET reads energy transfer from a long-lived donor to a nearby acceptor.)

Structures are written as SMILES.

As for `N#Cc1ccc(Oc2ccc3c(c2)COB3O)cc1` [Crisaborole], in the assay on eczema, the “clinical effect on eczema higher than that of the blank control” value is “about 10%” and the “proportion of patients who cannot benefit” value is on record as “about 50%”. In addition, in the assay with cytokine release, the “cell activity inhibiting cytokine release” value is on record as “about 500 nM”. The enzyme inhibition activity entry with PDE4 was “about 100 nM”.

By EC50 is commonly meant the concentration giving half of the maximal effect. The low end stands for a more potent agent, the high end for a less potent agent. The IC50 is the point on the concentration scale where inhibition reaches its midpoint. `COc1ccc(/C=C/n2c(C)cc(=O)cc2C)cc1OCCSC` [Example 77, (E)-1-(3-methylthioethoxy-4-methoxystyryl)-2,6-dimethylpyridin-4(1H)-one] returned an EC50 in assay [1] of 11 nM. In addition, in assay [2], the IC50 was found to be 26.4 nM. The like results for `COc1ccc(/C=C/n2c(C)cc(=O)cc2C)cc1OC1CCSC1` (centres unmarked) [Example 80, (E)-1-((3-(tetrahydrothiophen-3-yl)oxy-4-methoxy)-styryl)-2,6-dimethylpyridin-4(1H)-one] were, in that order, below 5 nM and 7 nM. The like results for `Cc1cc(=O)cc(C)n1/C=C/c1ccc(OC(F)F)c(OCC2CC2)c1` [Example 88, (E)-1-(3-(cyclopropylmethoxy)-4-(difluoromethoxy)styryl)-2,6-dimethylpyridin-4(1H)-one] were, in that order, below 5 nM and 2.8 nM. On to `COc1ccc(/C(=C/n2c(C)cc(=O)cc2C)C(N)=O)cc1OCC1CC1` [Example 107, (Z)-2-(3-cyclopropylmethoxy-4-methoxyphenyl)-3-(2,6-dimethyl-4-carbonylpyridin-1(4H)-yl)-acrylamide], for which the IC50 in assay [2] worked out at 450 nM. In the case of `CNC(=O)/C(=C\n1c(C)cc(=O)cc1C)c1ccc(OC)c(OCC2CC2)c1` [Example 108, (Z)-2-(3-cyclopropylmethoxy-4-methoxyphenyl)-3-(2,6-dimethyl-4-carbonylpyridin-1(4H)-yl)-N-methylacrylamide], in assay [2], the IC50 was determined as 760 nM. Still for that read-out and setting: with `COc1ccc(/C(=C/n2c(C)cc(=O)cc2C)C(=O)N(C)C)cc1OCC1CC1` [Example 109, (Z)-2-(3-cyclopropylmethoxy-4-methoxyphenyl)-3-(2,6-dimethyl-4-carbonylpyridin-1(4H)-yl)-N,N-dimethylacrylamide] the figure was 180 nM. Same read-out and setting: with `CCN(CC)C(=O)/C(=C\n1c(C)cc(=O)cc1C)c1ccc(OC)c(OCC2CC2)c1` [Example 110, (Z)-2-(3-cyclopropylmethoxy-4-methoxyphenyl)-3-(2,6-dimethyl-4-carbonylpyridin-1(4H)-yl)-N,N-diethylacrylamide] the figure was 460 nM. Take `COC(=O)/C(=C\n1c(C)cc(=O)cc1C)c1ccc(OC)c(OCC2CC2)c1` [Example 112, (Z)-methyl 2-(3-cyclopropylmethoxy-4-methoxyphenyl)-3-(2,6-dimethyl-4-carbonylpyridin-1(4H)-yl)-acrylate]: the IC50 in assay [2] worked out at 138 nM.

As for `CCOC(=O)/C(=C\n1c(C)cc(=O)cc1C)c1ccc(OC)c(OCC2CC2)c1` [Example 113, (Z)-ethyl 2-(3-cyclopropylmethoxy-4-methoxyphenyl)-3-(2,6-dimethyl-4-carbonylpyridin-1(4H)-yl)-acrylate], in assay [2], the IC50 came out at 170 nM. The same measure, in the same setting: with `CC#C/C(=C\n1c(C)cc(=O)cc1C)c1ccc(OC(F)F)c(OCC2CC2)c1` [Example 114, (Z)-1-(2-(3-cyclopropylmethoxy-4-difluoromethoxyphenyl)pent-1-en-3-yn-1-yl)-2,6-dimethylpyridin-4(1H)-one] the figure was 1.6 nM; with `COc1ccc(/C(C#N)=C/n2c(C)cc(=O)cc2C)cc1OC` [Example 115], 9.9 nM. On the same count and under the same terms, with `COc1ccc(/C=C(\C(N)=O)n2c(C)cc(=O)cc2C)cc1OCC1CC1` [Example 117] the figure was 3600 nM; with `COc1ccc(/C=C(\C(=O)N(C)C)n2c(C)cc(=O)cc2C)cc1OCC1CC1` [Example 118], 320 nM.
